Counter-ions that a name gives are not always drawn.
Legend:
[1] = format: physicochemical; settings: for saturation solubility in 1st fluid: pH 1.2; for saturation solubility in 2nd fluid: pH 6.8
Method: Saturation Solubility Test
The compound (A) obtained in Example 2, the compound (B) crystals obtained in Comparative Example 2, and the compound (C) obtained in Comparative Example 3 were suspended in water, or in 1st fluid for dissolution test (hereinafter, referred to as “1st fluid”) or 2nd fluid (hereinafter, referred to as “2nd fluid”) described in the Reagents·Test Solutions for General Tests, the Japanese Pharmacopoeia, 15th Edition. The suspensions were incubated at 37° C. After filtering a part of the suspensions, the concentrations of the resulting filtrates were measured by HPLC, and the saturation solubilities were calculated and compared. The HPLC measurement conditions are as follows.
• Detector: Ultraviolet and visible spectrophotometer /wavelength: 225 nm • Column: GL Science Inertsil ODS-3,5 μm, 4.6×250 mm • Column temperature: a constant temperature of around 35° C. • Flow rate: 1.0 mL/min • Mobile phase A: 10 mM potassium dihydrogen phosphate aqueous solution adjusted to pH 5.5 with potassium hydroxide aqueous solution • Mobile phase B: Acetonitrile • Mobile phase ratio 0 to 30 min: mobile phase A/mobile phase B=70/30
The saturation solubility values of compound (A), compound (B) crystals, and compound (C) in water, 1st fluid, and 2nd fluid are shown in Table 2. […] The saturation solubility of compound (A) in 1st fluid was about 30 times and about 2 times higher than those of compound (B) crystals and compound (C), respectively. In 2nd fluid, the saturation solubility of compound (A) was about 10 times and about 70 times higher than those of compound (B) crystals and compound (C), respectively.

in vivo = assay: in vivo; design: species or system SD rats; settings: male, SD, rat; for maximum drug concentration time (Tmax): po, 3 mg/kg
Method: Assay for Oral Absorbability
1) Preparation of Sample for Drug Concentration Measurement by Administration through Tail Vein
SD rats (Charles River, male, 7 weeks of age, 170 to 210 g) were used as experimental animals after fasting the rats overnight. N,N-dimethylacetamide (0.2 mL), saline (0.798 mL) and 2N-NaOH (0.002 mL) were added in these amounts with respect to 1 mg of the compound (B) to prepare a 1.0 mg/mL solution. The solution was then administered in a 1 mL/kg dose (1 mg/kg) through the tail vein under no anesthesia (3 samples). The intravenous administration through tail was performed using a 26G injection needle and a 1 mL syringe. Blood was collected through the subclavian veins after 2, 15, 60, 120, 240 and 360 minutes from the intravenous administration through tail. The blood was centrifuged, and the plasma was used as a sample for blood drug concentration measurement.
2) Preparation of Sample for Drug Concentration Measurement by Oral Administration
SD rats (Charles River, male, 7 weeks of age, 220 to 290 g) were used as experimental animals after fasting the rats overnight. A 0.5% methylcellulose aqueous solution (5 mL) was added with respect to 3 mg of compound (A) or compound (B) (in terms of a free compound) to prepare a 0.6 mg/mL drug solution. Each solution was orally administered to the rats in a 5 mL/kg dose (3 mg/kg) (3 samples each). The oral administration was performed using a rat sonde and a 2.5-mL syringe. […]
A suitable internal standard substance solution (0.1 mL) was added to the blood plasma (0.025 mL) obtained in 1) and 2) using an ordinary method. […] Blood plasma drug concentration was measured using the LC-MS/MS technique under the conditions below. […]
Bioavailability (%) was calculated from the value of the area under the blood drug concentration-time curve determined by using a WinNonlin Professional (Pharsight Corporation) from the blood drug concentration at each time point obtained as above after the intravenous administration of the compound (B) through tail and the oral administration of the compound (A) or the compound (B).

[2] = Stability test (storage under 90° C. open conditions, purity by HPLC); format: physicochemical
Method: Stability Test The compound (A) obtained in Example 2 was stored under 90° C. open conditions to examine stability. In stability measurement, the purity of a sample was measured by HPLC at the initial point and after 8 days, and the results were compared. The HPLC measurement conditions are as follows. Measurement Conditions • Detector: Ultraviolet and visible spectrophotometer/wavelength: 225 nm • Column: GL Science Inertsil ODS-3,5 μm, 4.6×250 mm • Column temperature: Constant temperature around 35° C. • Flow rate: 1.0 mL/min • Mobile phase A: 10 mM potassium dihydrogen phosphate aqueous solution adjusted to pH 5.5 with potassium hydroxide aqueous solution • Mobile phase B: Acetonitrile • (Mobile phase ratios are shown in Table 4) • Area measurement range: 54 minutes from the start of the analysis. Areas of the peaks in the blank were excluded from the calculations.

saturation solubility in water [1]	saturation solubility in 1st fluid [1]	saturation solubility in 2nd fluid [1]	maximum drug concentration time (Tmax) (in vivo)	bioavailability (in vivo)	Purity (%) after 8 days ([2]; after 8 days under 90° C. open conditions)	Purity (%) at initial point ([2]; initial point, before storage)	Compound
7 µg/mL	0.14 µg/mL	367 µg/mL	3.33 h				COc1cc(F)c(-n2c(=O)[nH]c3csc(C(=O)O)c3c2=O)cc1OCc1c(OC)ccc(F)c1F (single isomer, unassigned) [compound (B), 3-[2-fluoro-5-(2,3-difluoro-6-methoxybenzyloxy)-4-methoxyphenyl]-2,4-dioxo-1,2,3,4-tetrahydrothieno[3,4-d]pyrimidine-5-carboxylic acid, reference compound]
68 µg/mL	2 µg/mL	52 µg/mL					COc1cc(F)c(-n2c(=O)[nH]c3csc(C(=O)O)c3c2=O)cc1OCc1c(OC)ccc(F)c1F.COc1cc(F)c(-n2c(=O)[nH]c3csc(C(=O)O)c3c2=O)cc1OCc1c(OC)ccc(F)c1F.c1ccc(CNCCNCc2ccccc2)cc1 [compound (C), 3-[2-Fluoro-5-(2,3-difluoro-6-methoxybenzyloxy)-4-methoxyphenyl]-2,4-dioxo-1,2,3,4-tetrahydrothieno[3,4-d]pyrimidine-5-carboxylic acid.1/2N,N′-dibenzylethylenediamine salt, reference compound]
4165 µg/mL	4 µg/mL	3738 µg/mL	0.583 h	~59%	99.6%	99.6%	COc1cc(F)c(-n2c(=O)[nH]c3csc(C(=O)O)c3c2=O)cc1OCc1c(OC)ccc(F)c1F (single isomer, unassigned) [compound (A), 3-[2-fluoro-5-(2,3-difluoro-6-methoxybenzyloxy)-4-methoxyphenyl]-2,4-dioxo-1,2,3,4-tetrahydrothieno[3,4-d]pyrimidine-5-carboxylic acid choline salt]

Source: patent US10576084B2, “Salt of fused heterocyclic derivative and crystal thereof” (KISSEI PHARMACEUTICAL CO., LTD., priority 2010, dated 2020)
